Tested on: Ventricular Cells in the Area Adjacent to Infarction
Test: Suppression of hypertrophy of ventricular cells in the area adjacent to infarction (coronary artery ligation)
Format: in vivo, Wistar rats
Settings: rats, 4 weeks administration after coronary ligation; pravastatin 5 mg/kg/day, CS-866 2 mg/kg/day; normal 2,737, control 3,812

CC[C@H](C)C(=O)O[C@H]1C[C@H](O)C=C2C=C[C@H](C)[C@H](CC[C@@H](O)C[C@@H](O)CC(=O)O)[C@H]21 [pravastatin, (+)-(3R,5R)-3,5-dihydroxy-7-[(1S,2S,6S,8S,8aR)-6-hydroxy-2-methyl-8-[(S)-2-methylbutyryloxy]-1,2,6,7,8,8a-hexahydro-1-naphthyl]heptanoic acid]
Mass of cardiac muscle cells in adjacent area to the infarction: 3,053 μm^2

From US20050059720A1, “Medicinal compositions for the prevention or treatment of cardiac failure” (SANKYO COMPANY, LIMITED, priority 2000, published 2005)
